Results from the supplement of paper PMC10307832.

Key:
Experiment in all cases: relative viability (nuclei count vs DMSO), 5 days (fraction); higher = more cells survive
KN-93 + AZD7762 = compound: CN(C/C=C/C1=CC=C(C=C1)Cl)CC2=CC=CC=C2N(CCO)S(=O)(=O)C3=CC=C(C=C3)OC [KN-93] + NC(=O)Nc1cc(-c2cccc(F)c2)sc1C(=O)N[C@H]1CCCNC1 [AZD7762] (partner 0.2 µM)
Method in brief: (§1)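 Relative viability divides the nuclei count in treated wells by that in vehicle wells. Lung cancer cell lines were seeded in 1536-well plates, dosed by pin tool the next day, and fixed and stained after 5 days in one step with final 0.05% Triton X-100, 1% formaldehyde and 1 ug/ml Hoechst. Dosing was a single drug or a fixed anchor-drug dose plus five library-drug doses (not always all listed) in √10 steps, and values are medians of duplicate plates imaged at 4×.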

KN-93 + Crizotinib = compound: CN(C/C=C/C1=CC=C(C=C1)Cl)CC2=CC=CC=C2N(CCO)S(=O)(=O)C3=CC=C(C=C3)OC [KN-93] + C[C@@H](Oc1cc(-c2cnn(C3CCNCC3)c2)cnc1N)c1c(Cl)ccc(F)c1Cl [Crizotinib] (partner 1 µM)
Method in brief: as §1

KN-93 + Pictilisib = compound: CN(C/C=C/C1=CC=C(C=C1)Cl)CC2=CC=CC=C2N(CCO)S(=O)(=O)C3=CC=C(C=C3)OC [KN-93] + CS(=O)(=O)N1CCN(Cc2cc3nc(-c4cccc5[nH]ncc45)nc(N4CCOCC4)c3s2)CC1 [Pictilisib] (partner 1 µM)
Method in brief: as §1

KN-93 + Trametinib = compound: CN(C/C=C/C1=CC=C(C=C1)Cl)CC2=CC=CC=C2N(CCO)S(=O)(=O)C3=CC=C(C=C3)OC [KN-93] + CC(=O)Nc1cccc(-n2c(=O)n(C3CC3)c(=O)c3c(Nc4ccc(I)cc4F)n(C)c(=O)c(C)c32)c1 [Trametinib] (partner 0.02 µM)
Method in brief: as §1

KN-93 + Olaparib = compound: CN(C/C=C/C1=CC=C(C=C1)Cl)CC2=CC=CC=C2N(CCO)S(=O)(=O)C3=CC=C(C=C3)OC [KN-93] + O=C(c1cc(Cc2n[nH]c(=O)c3ccccc23)ccc1F)N1CCN(C(=O)C2CC2)CC1 [Olaparib] (partner 8 µM)
Method in brief: as §1

Row | Cell Line | relative viability (KN-93 + AZD7762; first compound 0.08 µM) | relative viability (KN-93 + AZD7762; first compound 0.253 µM) | relative viability (KN-93 + AZD7762; first compound 2.53 µM) | relative viability (KN-93 + AZD7762; first compound 8 µM) | relative viability (KN-93 + Crizotinib; first compound 0.08 µM) | relative viability (KN-93 + Crizotinib; first compound 0.253 µM) | relative viability (KN-93 + Crizotinib; first compound 2.53 µM) | relative viability (KN-93 + Crizotinib; first compound 8 µM) | relative viability (KN-93 + Pictilisib; first compound 0.08 µM) | relative viability (KN-93 + Pictilisib; first compound 0.253 µM) | relative viability (KN-93 + Pictilisib; first compound 2.53 µM) | relative viability (KN-93 + Pictilisib; first compound 8 µM) | relative viability (KN-93 + Trametinib; first compound 0.08 µM) | relative viability (KN-93 + Trametinib; first compound 0.253 µM) | relative viability (KN-93 + Trametinib; first compound 2.53 µM) | relative viability (KN-93 + Trametinib; first compound 8 µM) | relative viability (KN-93 + Olaparib; first compound 0.08 µM) | relative viability (KN-93 + Olaparib; first compound 0.253 µM) | relative viability (KN-93 + Olaparib; first compound 2.53 µM) | relative viability (KN-93 + Olaparib; first compound 8 µM)
1 | A-427 | 0.657 | 0.771 | 1.03 | 0.548 | 0.852 | 0.943 | 0.798 | 0.436 | 0.732 | 0.69 | 0.635 | 0.512 | 0.799 | 0.746 | 0.772 | 0.438 | 0.783 | 0.559 | 0.765 | 0.51
2 | NCI-H2342 | 0.472 | 0.467 | 0.539 | 0.404 |  |  |  |  |  |  |  |  | 0.744 | 0.687 | 0.94 | 0.78 | 0.4 | 0.423 | 0.446 | 0.352
3 | NCI-H1793 | 0.358 | 0.458 | 0.454 | 0.159 |  |  |  |  |  | 0.334 | 0.382 | 0.267 | 0.44 | 0.42 | 0.472 | 0.339 | 0.74 | 0.83 | 0.783 | 0.382
4 | NCI-H661 |  |  |  |  | 0.855 | 0.875 | 0.988 | 0.761 | 0.396 | 0.417 | 0.336 | 0.253 | 0.525 | 0.563 | 0.472 | 0.383 | 0.577 | 0.951 | 0.64 | 0.4
5 | NCI-H2023 |  |  |  |  | 0.795 | 0.855 | 0.745 | 0.439 | 0.3 | 0.212 | 0.22 | 0.167 | 0.55 | 0.459 | 0.628 | 0.434 | 0.454 | 0.542 | 0.606 | 0.324
6 | NCI-H1703 | 0.117 | 0.115 | 0.105 | 0.153 | 0.677 | 1.03 | 0.911 | 0.225 | 0.257 | 0.307 | 0.211 | 0.247 |  |  |  |  | 0.432 |  | 0.372 | 0.181
7 | COR-L 105 |  |  |  |  | 0.696 | 0.873 | 0.807 | 0.436 | 0.413 | 0.354 | 0.388 | 0.29 | 0.452 | 0.41 | 0.437 | 0.399 | 0.722 | 0.499 | 0.545 | 0.661
8 | ABC-1 | 0.924 | 1.05 | 0.869 | 0.38 | 1.05 | 1.28 | 0.498 | 0.219 | 0.638 | 0.721 | 0.738 | 0.264 |  |  |  |  | 0.785 | 0.687 | 0.978 | 0.339
9 | NCI-H1650 |  |  |  |  | 0.874 | 1.01 | 1.15 | 0.547 | 0.527 | 0.537 | 0.582 | 0.239 | 0.611 | 0.508 | 0.693 | 0.412 | 0.702 | 0.428 | 0.854 | 0.608
10 | COR-L23 |  |  |  |  | 0.697 | 0.764 | 0.673 | 0.455 | 0.796 | 0.892 | 0.997 | 0.414 | 0.554 | 0.625 | 0.722 | 0.395 | 0.298 | 0.338 | 0.357 | 0.327
11 | SK-LU-1 |  |  |  |  | 0.834 | 1.26 | 0.915 | 0.673 | 0.5 | 0.591 | 0.536 | 0.357 | 0.46 | 0.594 | 0.51 | 0.317 | 0.412 | 0.471 | 0.463 | 0.276
12 | NCI-H1563 |  |  |  |  | 0.875 | 0.845 | 0.643 | 0.601 | 0.661 | 0.618 | 0.648 | 0.608 |  |  |  |  |  |  |  | 
13 | NCI-H1395 | 0.421 | 0.403 | 0.391 | 0.345 |  |  |  |  | 0.654 | 0.682 | 1.02 | 0.477 | 1.03 | 1.19 | 1.07 | 0.775 | 0.452 | 0.48 | 0.424 | 0.419
14 | SW 1573 |  |  |  |  | 0.766 | 0.926 | 0.822 | 0.33 |  | 0.446 | 0.493 | 0.199 | 0.518 | 0.565 | 0.627 | 0.149 | 0.456 | 0.589 | 0.523 | 0.22
15 | NCI-H522 | 0.831 | 0.811 | 0.876 | 0.77 |  |  |  |  |  |  |  |  | 0.997 | 0.855 | 0.794 | 0.595 | 0.61 | 0.607 | 0.576 | 0.649
16 | UMC-11 |  |  |  |  |  | 0.901 | 0.413 | 0.457 |  | 0.976 | 0.962 | 0.278 | 0.607 | 0.761 | 0.858 | 0.223 | 0.43 | 0.402 | 0.327 | 0.214
17 | NCI-H520 |  |  |  |  |  | 1.08 | 0.759 | 0.586 |  | 0.32 | 0.297 | 0.26 | 0.591 | 0.783 | 0.682 | 0.641 | 0.312 | 0.312 | 0.282 | 0.272
18 | NCI-H2228 |  |  |  |  | 0.445 | 0.48 | 0.526 | 0.248 | 0.251 | 0.324 | 0.384 | 0.329 | 0.413 | 0.539 | 0.573 | 0.153 | 0.617 | 0.611 | 0.8 | 0.269
19 | SW 900 | 0.669 | 0.628 | 0.684 | 0.522 |  |  |  |  |  |  |  |  | 0.93 | 0.835 | 1.04 | 0.643 | 1.13 | 0.766 | 1.13 | 0.559
20 | NCI-H2009 |  |  |  |  | 1.18 | 1.1 | 1.04 | 0.474 | 0.841 | 1.01 | 0.761 | 0.345 | 0.319 | 0.283 | 0.271 | 0.188 | 0.683 | 0.815 | 0.656 | 0.528
